Reference: patent US20030027218A1, “PEPTIDES PROMOTING THE ACTIVATION OF LATENT TGF-BETA AND METHOD FOR SCREENING TGF-BETA ACTIVITY REGULATORS” (priority 1997, published 2003)
Blank lines part the entries; values can stand above or below the substance they belong to. Positions of bridges follow the written chain, without caps; N, C: chain ends. *: point of attachment. Biotin = O=C1N[C@H]2[C@H](CS[C@H]2CCCCC(=O)*)N1

Tests used:
[1] = test system: active TGF-β; experiment: Determination of active TGF-β by luciferase assay (BCEC culture supernatant on MLEC carrying PAI-1 promoter luciferase); format: cell-based, bovine; settings: BCEC incubated with test compound 24 hours
Method: The amount of active TGF-β was determined by measuring the luminescence of mink lung epithelial cells (MLEC) carrying the luciferase gene introduced downstream of the PAI-1 promoter by luciferase assay system (Promega) according to the method of Abe, et al. [Analytical Biochemistry, 216, 276 (1994)] as described below.
BCEC were cultured in a 24-well plate to make a confluent layer and then the medium was replaced by DMEM containing 0.1% BSA. After 6 hours, the cells were scraped reticulately with a comb and the remaining cells were washed with PBS (−) , followed by incubation in DMEM containing 0.1% BSA and a test compound for 24 hours. The resulting culture supernatant was taken as a sample. Six hours before the sampling of this culture supernatant, the above-mentioned MLEC were put into wells of a 96-well plate in an amount of 2.8×10^4 cells/well. After the cells were cultured in DMEM containing 10% fetal calf serum (FCS) for 6 hours, the medium was replaced by the above culture supernatant sample, followed by incubation for 16 hours. The cells were washed twice with PBS (−) and then subjected to measurement of active TGF-β concentration by lucuferase assay system.

[2] = test system: bovine capillary endothelial cells (BCEC); experiment: Degree of binding of 125I-LLTGF-β to bovine capillary endothelial cells (radioactivity); format: cell-based; settings: for Radioactivity (cpm), n = 4: BCEC, 2 ng/ml 125I-LLTGF-β, 4° C. 3 hours
Method: LLTGF-β isolated and purified from human platelets by the method of Okada, et al. [Journal of Biochemistry, 106, 304 (1989)] was ^125I-labeled according to the chloramine T method [Molecular & Cellular Biology, 2, 599 (1982)] in the following manner.
To 2 μg of LLTGF-β were added 25 μl of 1 M K-phosphate buffer (pH 7.5), 37 MBq of Na-^125I (DuPont NEN) and 10 μl of chloramine-T (0.5 mg/100 μl in 0.05 MK-phos. buffer, Wako Pure Chemical Industries, Ltd.), followed by stirring at room temperature for 40 seconds. After 15 μl of Na2S2O5 (1 mg/100 μl in 0.05 M K-phos. buffer) was added, the mixture was stirred at room temperature for 5 seconds, followed by addition of 100 μl of an aqueous solution of tyrosine (1 mg/ml). The reaction mixture was applied to a Sephadex G25 column and the eluate was taken in 500 μl fractions. Each fraction was subjected to measurement of radioactivity using a γ-counter (ARC-2000, Aloka Co., Ltd.). The fractions containing labeled protein were selected for use in the experiment.
The cells to be used in the experiment were obtained according to the method of Sato, et al. [Journal of Cell Biology, 123, 1249 (1993)]. Bovine vascular smooth muscle cells (BSMC) and porcine vascular smooth muscle cells (PSMC) were isolated from bovine aorta and porcine aorta, respectively, and cultured by the explant method [Journal of Cell Biology, 50, 172 (1971)]. Bovine capillary endothelial cells (BCEC) were isolated from bovine adrenal capillary and cultured. Bovine aortic endothelial cells (BAEC) were isolated from bovine aortic and cultured.
The following procedure was carried out according to the method of Sato, et al. [Journal of Cell Biology, 123, 1249 (1993)].
BSMC, PSMC and BCEC isolated and cultured in the above-described manner were respectively put into 35 mm dishes in an amount of 4×10^4 cells/dish. On the next day, the medium was replaced by Dulbecco's Modified Eagle's Medium (DMEM, Nissui Pharmaceutical Co.) containing 0.1% bovine serum albumin (BSA), followed by incubation for 5 hours. After the cells were washed with 2 ml of phosphate-buffered saline containing 0.1 g/l each of MgCl2.6H2O and CaCl2 [hereinafter sometimes referred to as PBS(+); phosphate-buffered saline containing neither MgCl2.6H2O nor CaCl2 is referred to as PBS (−)], the medium was replaced by 1 ml of ice-cold DMEM containing 0.1% BSA, 2 ng/ml ^125I-LLTGF-β and a test compound, followed by incubation at 4° C. for 3 hours. […] After being washed three times with 2 ml of ice-cold PBS(+), the cells were lysed with 900 μl of 0.5% Triton X-100 (room temperature, 0.5-1 hour), and 800 μl of the lysate was subjected to measurement of radioactivity using a γ-counter.

[3] = test system: bovine aortic endothelial cells (BAEC); experiment: Degree of binding of 125I-LLTGF-β to bovine aortic endothelial cells (radioactivity); format: cell-based; settings: test compound 100 μg/ml
[4] = test system: bovine capillary endothelial cells (BCEC); experiment: Migration of bovine vascular endothelial cells (release of active TGF-β from latent TGF-β); format: cell-based; settings: 24 hours, 10 /μg/ml
Method: The following procedure was carried out according to the method of Sato, et al. [Journal of Cell Biology, 123, 1249 (1993)]. were scraped with a razor, the remaining cells were washed with PBS (−), followed by incubation in DMEM containing 0.1% BSA and a test compound. After 24 hours, the number of the cells which migrated in four fileds of a microscope (IX70, Olympus) was counted for each dish. The test compound was added in the same manner as in Test Example 1. The migration of cells was inhibited and the release of active TGF-β from latent TGF-β was promoted by Compounds 3 and 5 to 9 at a concentration of 50 μg/ml.

[5] = concentrations indicated in FIG. 6
[6] = test compound 100 μg/ml, vehicle 416.8 ± 89.6

Substance: H-Leu-Ser-Thr-Ser-Lys-Thr-Ile-Asp-Met-Glu-Leu-Val-Lys-Arg-Lys-Arg-Ile-Glu-Ala-Ile-Arg-Gly-Cys-OH (H-LSTSKTIDMELVKRKRIEAIRGC-OH) [Compound 3]
release of active TGF-β (luciferase assay) [1, 5]: Active TGF-β was released

Substance: H-cyclo(Cys-Val-Leu-Leu-Ser-Arg-Ala-Glu-Leu-Arg-Leu-Leu-Arg-Arg-Leu-Lys-Leu-Lys-Cys)-OH (H-CVLLSRAELRLLRRLKLKC-OH; disulfide 1-19; SMILES CC(C)C[C@@H]1NC(=O)[C@H](CCC(=O)O)NC(=O)[C@H](C)NC(=O)[C@H](CCCNC(=N)N)NC(=O)[C@H](CO)NC(=O)[C@H](CC(C)C)NC(=O)[C@H](CC(C)C)NC(=O)[C@H](C(C)C)NC(=O)[C@@H](N)CSSC[C@@H](C(=O)O)NC(=O)[C@H](CCCCN)NC(=O)[C@H](CC(C)C)NC(=O)[C@H](CCCCN)NC(=O)[C@H](CC(C)C)NC(=O)[C@H](CCCNC(=N)N)NC(=O)[C@H](CCCNC(=N)N)NC(=O)[C@H](CC(C)C)NC(=O)[C@H](CC(C)C)NC(=O)[C@H](CCCNC(=N)N)NC1=O) [Compound 12]
Radioactivity (cpm), n = 4 ([2]; test compound 30 μg/ml, vehicle 163.1 ± 28.3): 2739.9 ± 182.8 cpm | degree of binding of TGF-β to cells ([2]; concentration of 30 μg/ml, BCEC (Table 3)): increased

Substance: H-Leu-Ser-Thr-Cys-Lys-Thr-Ile-Asp-Met-Glu-Leu-Val-Lys-Arg-Lys-Arg-OH (H-LSTCKTIDMELVKRKR-OH) [Compound 14]
Radioactivity (cpm), n = 4 [2, 6]: 3369.9 ± 166.8 cpm

Substance: H-Leu-Lys-Leu-Lys-Val-Glu-Gln-His-Val-Glu-Leu-Tyr-Gln-Lys-Tyr-Ser-Asn-Asn-Ser-Trp-Arg-OH (H-LKLKVEQHVELYQKYSNNSWR-OH) [Compound 15]
Radioactivity (cpm), n = 4 [2, 6]: 5621.1 ± 889.2 cpm

Substance: Biotinyl-Gly-Arg-Arg-Leu-Lys-Leu-Lys-Val-Glu-Gln-His-Val-Glu-Leu-Tyr-Gln-Lys-Tyr-Ser-Asn-Asn-Ser-Trp-Arg-OH (Biotin-GRRLKLKVEQHVELYQKYSNNSWR-OH; SMILES CC(C)C[C@H](NC(=O)[C@H](CCCNC(=N)N)NC(=O)[C@H](CCCNC(=N)N)NC(=O)CNC(=O)CCCC[C@@H]1SC[C@@H]2NC(=O)N[C@@H]21)C(=O)N[C@@H](CCCCN)C(=O)N[C@@H](CC(C)C)C(=O)N[C@@H](CCCCN)C(=O)N[C@H](C(=O)N[C@@H](CCC(=O)O)C(=O)N[C@@H](CCC(N)=O)C(=O)N[C@@H](Cc1c[nH]cn1)C(=O)N[C@H](C(=O)N[C@@H](CCC(=O)O)C(=O)N[C@@H](CC(C)C)C(=O)N[C@@H](Cc1ccc(O)cc1)C(=O)N[C@@H](CCC(N)=O)C(=O)N[C@@H](CCCCN)C(=O)N[C@@H](Cc1ccc(O)cc1)C(=O)N[C@@H](CO)C(=O)N[C@@H](CC(N)=O)C(=O)N[C@@H](CC(N)=O)C(=O)N[C@@H](CO)C(=O)N[C@@H](Cc1c[nH]c2ccccc12)C(=O)N[C@@H](CCCNC(=N)N)C(=O)O)C(C)C)C(C)C) [Compound 16]
Radioactivity (cpm), n = 4 ([3]; Table 6, vehicle 792.0 ± 107.0): 10495.0 ± 803.0 cpm

Substance: Biotinyl-cyclo(Cys-Val-Leu-Leu-Ser-Arg-Ala-Glu-Leu-Arg-Leu-Leu-Arg-Arg-Leu-Lys-Leu-Lys-Cys)-OH (Biotin-CVLLSRAELRLLRRLKLKC-OH; disulfide 1-19; SMILES CC(C)C[C@@H]1NC(=O)[C@H](CCC(=O)O)NC(=O)[C@H](C)NC(=O)[C@H](CCCNC(=N)N)NC(=O)[C@H](CO)NC(=O)[C@H](CC(C)C)NC(=O)[C@H](CC(C)C)NC(=O)[C@H](C(C)C)NC(=O)[C@@H](NC(=O)CCCC[C@@H]2SC[C@@H]3NC(=O)N[C@@H]32)CSSC[C@@H](C(=O)O)NC(=O)[C@H](CCCCN)NC(=O)[C@H](CC(C)C)NC(=O)[C@H](CCCCN)NC(=O)[C@H](CC(C)C)NC(=O)[C@H](CCCNC(=N)N)NC(=O)[C@H](CCCNC(=N)N)NC(=O)[C@H](CC(C)C)NC(=O)[C@H](CC(C)C)NC(=O)[C@H](CCCNC(=N)N)NC1=O) [Compound 13]
Radioactivity (cpm), n = 4 ([3]; Table 5, vehicle 1076.5 ± 12.0): 4704.0 ± 939.9 cpm

release of active TGF-β (luciferase assay) ([1]; concentration of 10 μg/ml): remarkable effect | release of active TGF-β (luciferase assay) [1, 5]: Active TGF-β was released
Substance: H-cyclo(Cys-Leu-Ser-Thr-Ser-Lys-Thr-Ile-Asp-Met-Glu-Leu-Val-Lys-Arg-Lys-Arg-Ile-Glu-Ala-Ile-Arg-Gly-Cys)-OH (H-CLSTSKTIDMELVKRKRIEAIRGC-OH; disulfide 1-24; SMILES CC[C@H](C)[C@@H]1NC(=O)[C@H](C)NC(=O)[C@H](CCC(=O)O)NC(=O)[C@H]([C@@H](C)CC)NC(=O)[C@H](CCCNC(=N)N)NC(=O)[C@H](CCCCN)NC(=O)[C@H](CCCNC(=N)N)NC(=O)[C@H](CCCCN)NC(=O)[C@H](C(C)C)NC(=O)[C@H](CC(C)C)NC(=O)[C@H](CCC(=O)O)NC(=O)[C@H](CCSC)NC(=O)[C@H](CC(=O)O)NC(=O)[C@H]([C@@H](C)CC)NC(=O)[C@H]([C@@H](C)O)NC(=O)[C@H](CCCCN)NC(=O)[C@H](CO)NC(=O)[C@H]([C@@H](C)O)NC(=O)[C@H](CO)NC(=O)[C@H](CC(C)C)NC(=O)[C@@H](N)CSSC[C@@H](C(=O)O)NC(=O)CNC(=O)[C@H](CCCNC(=N)N)NC1=O) [Compound 10]
migration inhibitory effect [4]: showed the migration inhibitory effect
